The target of series [1] is OAT3 (Homo sapiens, UniProt Q8TCC7).
Series [2] has as its target PEDV-CoV-2 3CLpro (Porcine epidemic diarrhea virus, UniProt P0C6Y4). The series is described as follows: 3CLpro FRET protease activity assay, PEDV-CoV-2. It counts as biochemical.
Series [3] deals with CYP2C9 (Homo sapiens, UniProt P11712). The series is described as follows: biochemical.
The subject of series [4] is SARS-CoV-2. The series is described as follows: Antiviral activity in A549-ACE2 cells, high content imaging of virus N protein. It counts as cell-based, USA-WA1/2020 SARS-CoV-2. To be noted: for EC50 / EC90: Severe acute respiratory syndrome coronavirus 2, A549-ACE2.
Series [5] concerns the target HIV-1 protease (Human immunodeficiency virus type 1 group M subtype B, UniProt P04585). The series is described as follows: biochemical.
The target of series [6] is IBV-CoV-2 3CLpro (Avian infectious bronchitis virus, UniProt P0C6Y1). The series is described as follows: 3CLpro FRET protease activity assay, IBV-CoV-2. It counts as biochemical.
IBV-CoV-2 3CLpro, sequence (P0C6Y1 2780-3086): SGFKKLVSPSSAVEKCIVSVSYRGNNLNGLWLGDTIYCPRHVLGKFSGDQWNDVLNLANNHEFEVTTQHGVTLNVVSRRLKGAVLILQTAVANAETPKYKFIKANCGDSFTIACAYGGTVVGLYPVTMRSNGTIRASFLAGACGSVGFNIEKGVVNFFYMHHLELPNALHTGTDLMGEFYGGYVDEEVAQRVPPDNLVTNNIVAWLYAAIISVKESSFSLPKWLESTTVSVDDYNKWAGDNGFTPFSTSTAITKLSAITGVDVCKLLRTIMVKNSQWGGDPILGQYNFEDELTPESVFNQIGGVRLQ
For series [7] the following is noted: cytochrome P450 metabolism, HLM.
The subject of series [8] is Vero E6-enACE2 cells. To be noted: read-out: CC50 μM GeoMean (95% CI).
The test system of series [9] is SARS-CoV-2 Washington strain 1. It counts as cell-based.
The target in series [10] is OCT1 (Homo sapiens, UniProt O15245).
OCT1, sequence (O15245 whole entry): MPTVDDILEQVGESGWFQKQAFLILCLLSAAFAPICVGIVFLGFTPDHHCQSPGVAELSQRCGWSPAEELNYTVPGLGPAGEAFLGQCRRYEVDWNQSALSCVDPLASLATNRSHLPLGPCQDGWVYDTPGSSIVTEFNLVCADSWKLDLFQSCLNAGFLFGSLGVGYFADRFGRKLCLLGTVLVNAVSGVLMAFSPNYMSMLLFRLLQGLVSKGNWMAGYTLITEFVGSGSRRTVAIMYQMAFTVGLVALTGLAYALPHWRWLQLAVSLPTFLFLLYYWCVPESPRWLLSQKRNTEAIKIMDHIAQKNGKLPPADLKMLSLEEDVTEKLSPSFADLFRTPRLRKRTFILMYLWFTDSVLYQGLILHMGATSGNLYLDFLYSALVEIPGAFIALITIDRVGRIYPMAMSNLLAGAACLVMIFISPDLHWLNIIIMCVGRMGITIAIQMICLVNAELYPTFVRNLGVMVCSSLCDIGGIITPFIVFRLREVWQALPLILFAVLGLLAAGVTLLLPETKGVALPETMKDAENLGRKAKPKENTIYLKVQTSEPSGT
The subject of series [11] is SARS2 BetaCov GHB-03021/2020. The series is described as follows: microbe, parasite or virus in culture. To be noted: Severe acute respiratory syndrome coronavirus 2; in the presence of the P-gp inhibitor. Type of series: cell-based, SARS-CoV-2.

Read-outs that look alike come from different tables or passages of the source.

The record followed here is patent publication US11926642B2, “Compounds and methods for the treatment of COVID-19” (priority 2020, dated 2024).

CYP2C9, sequence (P11712 whole entry): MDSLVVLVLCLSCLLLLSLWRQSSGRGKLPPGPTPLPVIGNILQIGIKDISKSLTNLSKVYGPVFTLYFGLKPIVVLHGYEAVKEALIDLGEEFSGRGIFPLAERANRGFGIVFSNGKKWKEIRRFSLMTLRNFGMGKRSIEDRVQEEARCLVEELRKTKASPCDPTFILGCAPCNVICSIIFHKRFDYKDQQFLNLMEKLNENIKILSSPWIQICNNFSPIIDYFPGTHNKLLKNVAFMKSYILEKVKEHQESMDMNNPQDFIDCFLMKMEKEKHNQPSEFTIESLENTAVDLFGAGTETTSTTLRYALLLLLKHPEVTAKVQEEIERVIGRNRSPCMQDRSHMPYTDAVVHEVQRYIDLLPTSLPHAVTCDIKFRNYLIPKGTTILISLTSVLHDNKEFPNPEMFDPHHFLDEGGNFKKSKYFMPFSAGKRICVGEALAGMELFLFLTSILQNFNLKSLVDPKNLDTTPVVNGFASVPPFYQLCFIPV
PEDV-CoV-2 3CLpro, sequence (P0C6Y4 2998-3299): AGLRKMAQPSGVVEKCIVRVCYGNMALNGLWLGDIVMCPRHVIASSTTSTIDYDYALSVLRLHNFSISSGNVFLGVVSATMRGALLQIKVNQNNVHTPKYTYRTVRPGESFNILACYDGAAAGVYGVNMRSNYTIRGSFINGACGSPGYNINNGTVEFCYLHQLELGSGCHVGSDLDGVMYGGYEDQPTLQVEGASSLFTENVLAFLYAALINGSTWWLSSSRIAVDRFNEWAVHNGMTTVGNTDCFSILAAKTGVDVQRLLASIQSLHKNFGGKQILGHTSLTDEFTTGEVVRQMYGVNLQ
OAT3, sequence (Q8TCC7 whole entry): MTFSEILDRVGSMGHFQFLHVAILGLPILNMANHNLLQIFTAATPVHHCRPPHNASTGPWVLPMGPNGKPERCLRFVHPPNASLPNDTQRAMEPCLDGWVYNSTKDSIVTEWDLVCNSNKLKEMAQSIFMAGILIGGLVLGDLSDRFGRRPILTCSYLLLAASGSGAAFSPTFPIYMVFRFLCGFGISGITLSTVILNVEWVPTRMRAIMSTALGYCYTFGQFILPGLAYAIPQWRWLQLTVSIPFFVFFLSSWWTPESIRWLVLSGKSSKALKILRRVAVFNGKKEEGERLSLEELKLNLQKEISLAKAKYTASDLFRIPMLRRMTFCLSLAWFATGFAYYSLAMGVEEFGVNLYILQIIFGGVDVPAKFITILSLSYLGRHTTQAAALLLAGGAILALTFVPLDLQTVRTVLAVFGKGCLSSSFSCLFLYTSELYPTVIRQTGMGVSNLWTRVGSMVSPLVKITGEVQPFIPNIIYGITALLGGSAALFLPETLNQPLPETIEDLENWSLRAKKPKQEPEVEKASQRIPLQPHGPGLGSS

Usually IC50 stands for the midpoint of a concentration-inhibition curve. For orientation: Ki means the dissociation constant of the complex between target and ligand, obtained from inhibition or displacement. Read a low Ki as higher affinity. The EC50 is the concentration giving half of the maximal effect. As a reminder, the EC90 is the point of the concentration-response curve where the effect stands at 90%. The CC50 is the concentration at which the toxic effect on the cells reaches its halfway point. For `COc1cccc2[nH]c(C(=O)N[C@@H](CC(C)C)C(=O)N[C@@H](C[C@@H]3CCNC3=O)C(=O)CO)cc12` [parent compound, N-((1S)-1-{[((1S)-3-hydroxy-2-oxo-1-{[(3S)-2-oxopyrrolidin-3-yl]methyl}propyl)amino]carbonyl}-3-methylbutyl)-4-methoxy-1H-indole-2-carboxamide], the concentration for half-maximal inhibition (IC50) is more than 20 µM in series [1], more than 200 µM in series [3], more than 11.1 µM in [5] and more than 20 µM in series [10]. The Ki in series [2] turned out to be 0.3 ± 0.1 nM; in [6] it was 4 ± 0.4 nM. The EC50 in [4] (24 hours post infection) worked out at 221 nM; in [4] (48 hours post infection) it was 158 nM; in series [9] (read-out: EC50 μM GeoMean (95% CI)), 0.23 µM. Moreover, the EC90 in [4] (24 hours post infection) was 734 nM; in [4] (48 hours post infection), 439 nM; in series [9] (in the presence of the P-gp inhibitor) it was 480 nM; in series [11], 1600 nM. Moreover, in series [4] (across a range of in vitro antiviral assays), the “Hill coefficient (m), slope of dose response” value was found to be 3. Also, the “unbound CIint” value in series [7] turned out to be 14 µL/min/mg. For the same compound, the cytotoxic concentration (CC50) in series [8] (efflux inhibitor 0), in [8] (efflux inhibitor 0.5 μM) and in series [8] (efflux inhibitor 2 μM) was more than 100 µM each time.
